From patent US20090209536A1, “AMINOQUINAZOLINE CANNABINOID RECEPTOR MODULATORS FOR TREATMENT OF DISEASE” (KALYPSYS, INC., priority 2007, published 2009)

Key:
[1] = target: T1, human cannabinoid receptor type 2 (Homo sapiens, UniProt P34972); assay: Human CB2 Radioligand Binding Assay; settings: competition with [3H] CP-55,940; membranes from stably transfected CHO CB2 cells; read-out: CB2 Ligand Binding Asssay EC50
T1 construct: expressed in transfected cells; membrane preparation
Procedure: 1. Human CB2 Radioligand Binding Assay
This receptor binding filtration assay measures the receptor-ligand interactions of compounds by measuring ability to compete with a radiolabeled control ligand. Reactions were performed in 96 deep-well plate (Costar 3961) with a final volume of 600 ul. Compounds were added to each well either in single point (10 uM final) or dose-response. Compounds were delivered in DMSO or further diluted in incubation buffer to a final assay DMSO concentration of 1%. Incubation buffer (50 mM Tris-HCl pH 7.4, 2.5 mM EGTA, 5 mM MgCl2, 5.0 mg/ml fatty acid free BSA) was added to each well. Following buffer addition, [^3H] CP-55,940 was added. Tritiated CP-55,940 (Perkin Elmer) was used at the Kd determined from prior saturation binding experiments conducted on each lot of membranes. Membrane preparations from stably transfected CHO CB2 cells were added and the reaction was incubated for 90 minutes at 30° C. Unifilter GF/C filtration plates (Perkin Elmer) were pre-wet with 0.05% polyethylenimine. Samples were transferred to Unifilter plates and separation of unbound radioligand was achieved using a vacuum manifold (Millipore). Following thorough washing with 5 ml/well ice-cold wash buffer (50 mM Tris-HCl pH 7.4, 2.5 mM EGTA, 5 mM MgCl2, 0.5 mg/ml fatty acid free BSA), filterplates were dried completely. Betaplate Scint Scintillation cocktail (25 ul, Perkin Elmer) was applied and plates were read using Microbeta Trilux (Wallac). Data analysis was performed in Spotfire. Activity of the positive control (100 nM CP-55,940) was set as 100% efficacy.
Stable recombinant Human CB2-CHO cell membranes were prepared as follows: Chinese Hamster Ovarian (CHO) cells stably expressing human cannabinoid receptor type 2 were grown to 90% confluence in 15×100 mm culture dishes under puromycin selection (5 ug/ml) Cells were harvested from culture flasks using a cell scraper, were washed once with cold phosphate-buffered saline (calcium and magnesium free) and pelleted by centrifugation at 400 g for 5 min at 4° C. Cell pellet was washed once with cold phosphate-buffered saline and centrifuged again at 400×g for 5 min at 4° C. The pellet was suspended in ice-cold lysis buffer (10 mM Tris-HCl, 0.1 mM EDTA, containing […], pH 7.5) and homogenized in a chilled 7 ml glass dounce homogenizer using 50 strokes. The homogenate was centrifuged at 400 g for 15 min at 4° C. The cloudy supernatant was collected and centrifuged at 41000 g for 30 min at 4° C. The resulting pellet was washed with ice-cold sucrose-free lysis buffer and centrifuged again at 41000 g for 30 min at 4° C. The membrane pellet was suspended in sucrose-free storage buffer (10 mm Tris-HCl, 0.1 mM EDTA, pH 7.5) to a concentration of 2-3 mg protein/ml. Aliquots were flash frozen in liquid nitrogen and stored at −80° C. Concentration was determined using Dc protein assay kit (Bio-Rad).

[2] = target: T2, human cannabinoid receptor type 1 (Homo sapiens, UniProt P21554); assay: Human CB1 Radioligand Binding Assay (basis of selectivity, CB2 vs. CB1); settings: CB1: HEK 293 EBNA cells expressing human CB1; CB2: CHO CB2 membranes
T2 construct: purchased Perkin Elmer RBHCB1M; host or cells: HEK 293 EBNA cells
Procedure: 2. Human CB1 Radioligand Binding Assay
The incubation buffer was composed of 50 mM Tris-HCl pH 7.4, 2.5 mM EDTA, 5 mM MgCl2, 5.0 mg/ml fatty acid free BSA and the wash buffer was composed of 50 mM Tris-HCl pH 7.4, 2.5 mM EDTA, 5 mM MgCl2, 0.5 mg/ml fatty acid free BSA.

T2 sequence (P21554 whole entry): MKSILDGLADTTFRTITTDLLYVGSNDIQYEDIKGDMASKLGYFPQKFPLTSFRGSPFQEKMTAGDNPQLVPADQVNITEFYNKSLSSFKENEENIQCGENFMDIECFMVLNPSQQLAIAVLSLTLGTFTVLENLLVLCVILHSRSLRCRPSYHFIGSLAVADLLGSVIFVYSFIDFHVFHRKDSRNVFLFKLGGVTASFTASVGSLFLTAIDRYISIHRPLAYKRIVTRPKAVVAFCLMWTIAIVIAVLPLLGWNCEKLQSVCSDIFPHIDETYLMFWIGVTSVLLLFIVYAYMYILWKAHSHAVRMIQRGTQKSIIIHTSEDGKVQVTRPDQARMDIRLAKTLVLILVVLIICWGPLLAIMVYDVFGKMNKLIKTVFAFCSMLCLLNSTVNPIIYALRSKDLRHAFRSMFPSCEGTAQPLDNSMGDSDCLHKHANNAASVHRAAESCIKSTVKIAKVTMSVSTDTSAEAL
T1 sequence (P34972 whole entry): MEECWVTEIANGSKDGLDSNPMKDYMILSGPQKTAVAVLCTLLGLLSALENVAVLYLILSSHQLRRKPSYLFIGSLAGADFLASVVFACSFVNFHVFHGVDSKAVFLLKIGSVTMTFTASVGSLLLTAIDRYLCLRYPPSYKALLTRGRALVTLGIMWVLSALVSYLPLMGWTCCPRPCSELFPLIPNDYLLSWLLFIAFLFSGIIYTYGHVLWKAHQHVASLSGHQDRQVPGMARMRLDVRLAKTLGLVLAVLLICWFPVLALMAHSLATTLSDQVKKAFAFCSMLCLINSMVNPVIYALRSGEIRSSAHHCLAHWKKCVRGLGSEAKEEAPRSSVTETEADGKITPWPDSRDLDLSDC

SMILES	EC50 [1] [µM]	Selectivity, CB2 vs. CB1 [2]
O=S(=O)(NCc1nc(N2CCCC2)c2ccccc2n1)c1cccc2ccccc12 [Example 1, N-((4-(Pyrrolidin-1-yl)quinazolin-2-yl)methyl)naphthalene-1-sulfonamide]	< 1	+ (+ indicates > 10−fold)
O=S(=O)(NCc1nc(N2CCCC2)c2ccccc2n1)c1ccccc1 [Example 3, N-((4-(Pyrrolidin-1-yl)quinazolin-2-yl)methyl)benzenesulfonamide]	< 1	+ (+ indicates > 10−fold)
O=C(NCc1nc(N2CCCC2)c2ccccc2n1)Nc1ccc(Cl)c(C(F)(F)F)c1 [Example 11, 1-(4-Chloro-3-(trifluoromethyl)phenyl)-3-((4-(pyrrolidin-1-yl)quinazolin-2-yl)methyl)urea]	> 1	− (− indicates ≦ 10−fold)
O=C(NCc1nc(N2CCCC2)c2ccccc2n1)c1ccc(Cl)cc1 [Example 12, 4-Chloro-N-((4-(pyrrolidin-1-yl)quinazolin-2-yl)methyl)benzamide]	> 1	− (− indicates ≦ 10−fold)
Fc1ccc(-c2nc(N3CCCC3)c3ccccc3n2)cc1F [Example 13, 2-(3,4-Difluorophenyl)-4-(pyrrolidin-1-yl)quinazoline]	< 1	− (− indicates ≦ 10−fold)
Fc1ccc(-c2nc(N3CCCC3)c3ccccc3n2)cc1F [Example 14, 2-(3,4-Difluorophenyl)-4-(pyrrolidin-1-yl)quinazoline]	> 1	
CN(Cc1ccccc1)c1nc(-c2ccc(F)c(F)c2)nc2ccccc12 [Example 17, N-benzyl-2-(3,4-difluorophenyl)-N-methylquinazolin-4-amine]	> 1	− (− indicates ≦ 10−fold)
CN1CCN(c2nc(-c3ccc(F)c(F)c3)nc3ccccc23)CC1 [Example 18, 2-(3,4-Difluorophenyl)-4-(4-methylpiperazin-1-yl)quinazoline]	< 1	+ (+ indicates > 10−fold)
CC(=O)N1CCN(c2nc(-c3ccc(F)c(F)c3)nc3ccccc23)CC1 [Example 19, 1-(4-(2-(3,4-Difluorophenyl)quinazolin-4-yl)piperazin-1-yl)ethanone]	< 1	+ (+ indicates > 10−fold)
CN(Cc1ccccc1)c1nc(C2CCCCC2)nc2ccccc12 [Example 39, N-Benzyl-2-cyclohexyl-N-methylquinazolin-4-amine]	< 1	
CN1CCN(c2nc(-c3ccccc3Cl)nc3ccc(Br)cc23)CC1 [Example 183, 6-Bromo-2-(2-chlorophenyl)-4-(4-methylpiperazin-1-yl)quinazoline]	< 1	
O=S(=O)(NCc1nc(N2CCOCC2)c2ccccc2n1)c1ccc(Cl)cc1 [Example 293, 4-Chloro-N-((4-morpholinoquinazolin-2-yl)methyl)benzenesulfonamide]	> 1	
Cc1c(Cl)cccc1S(=O)(=O)NCc1nc(N2CCOCC2)c2ccccc2n1 [Example 295, 3-Chloro-2-methyl-N-((4-morpholinoquinazolin-2-yl)methyl)benzenesulfonamide]	> 1	
CCOC(=O)N1CCN(c2nc(-c3ccccc3Cl)nc3cc(C(=O)N(CC)CC)ccc23)CC1 [Example 319, Ethyl 4-(2-(2-chlorophenyl)-7-(diethylcarbamoyl)quinazolin-4-yl)piperazine-1-carboxylate]	> 1	

Next, values leading:

EC50 [1] [µM]	Selectivity, CB2 vs. CB1 [2]	SMILES
< 1	+ (+ indicates > 10−fold)	Cc1cccc2c(N3CCCC3)nc(CNS(=O)(=O)c3cccc4ccccc34)nc12 [Example 2, N-((8-Methyl-4-(pyrrolidin-1-yl)quinazolin-2-yl)methyl)naphthalene-1-sulfonamide]
< 1	− (− indicates ≦ 10−fold)	O=S(=O)(NCc1nc(N2CCCC2)c2ccccc2n1)c1ccc(F)cc1F [Example 4, 2,4-Difluoro-N-((4-(pyrrolidin-1-yl)quinazolin-2-yl)methyl)benzenesulfonamide]
< 1	+ (+ indicates > 10−fold)	CN1CCN(c2nc(CNS(=O)(=O)c3cccc4ccccc34)nc3ccccc23)CC1 [Example 5, N-((4-(4-Methylpiperazin-1-yl)quinazolin-2-yl)methyl)naphthalene-1-sulfonamide]
> 1	+ (+ indicates > 10−fold)	CN1CCN(c2nc(CNS(=O)(=O)c3ccc4ccccc4c3)nc3ccccc23)CC1 [Example 6, N-((4-(4-methylpiperazin-1-yl)quinazolin-2-yl)methyl)naphthalene-2-sulfonamide]
< 1	+ (+ indicates > 10−fold)	COC(=O)c1sccc1S(=O)(=O)NCc1nc(N2CCCC2)c2ccccc2n1 [Example 7, Methyl 3-(N-((4-(Pyrrolidin-1-yl)quinazolin-2-yl)methyl)sulfamoyl)thiophene-2-carboxylate]
> 1	+ (+ indicates > 10−fold)	CNC(=O)c1sccc1S(=O)(=O)NCc1nc(N2CCCC2)c2ccccc2n1 [Example 8, N-Methyl-3-(N-((4-(pyrrolidin-1-yl)quinazolin-2-yl)methyl)sulfamoyl)thiophene-2-carboxamide]
> 1	− (− indicates ≦ 10−fold)	CCN(CC)CCNC(=O)c1sccc1S(=O)(=O)NCc1nc(N2CCCC2)c2ccccc2n1 [Example 9, N-(2-(Diethylamino)ethyl)-3-(N-((4-(pyrrolidin-1-yl)quinazolin-2-yl)methyl)sulfamoyl)thiophene-2-carboxamide]
> 1	+ (+ indicates > 10−fold)	O=C(NCc1nc(N2CCCC2)c2ccccc2n1)Nc1ccc(Cl)cc1Cl [Example 10, 1-(2,4-Dichlorophenyl)-3-((4-(pyrrolidin-1-yl)quinazolin-2-yl)methyl)urea]
< 1	− (− indicates ≦ 10−fold)	Fc1ccc(-c2nc(N3CCCCC3)c3ccccc3n2)cc1F [Example 15, 2-(3,4-difluorophenyl)-4-(piperidin-1-yl)quinazoline]
> 1	− (− indicates ≦ 10−fold)	Fc1ccc(-c2nc(N3CCOCC3)c3ccccc3n2)cc1F [Example 16, 4-(2-(3,4-difluorophenyl)quinazolin-4-yl)morpholine]
< 1		CC(C)(C)c1ccc(-c2nc(NC3CCCCC3)c3ccccc3n2)cc1 [Example 129, 2-(4-tert-Butylphenyl)quinazolin-4-yl cyclohexylamine]
> 1		c1ccc2c(N3CCCC3)nc(C3CCCC3)nc2c1 [Example 135, 2-Cyclopentyl-4-pyrrolidin-1-ylquinazoline]
> 1		CC(C)(C)c1ccc(Nc2nc(-c3ccc(OC(F)(F)F)cc3)nc3ccccc23)cc1 [Example 143, (4-tert-Butylphenyl)-[2-(4-trifluoromethoxyphenyl)-quinazolin-4-yl]amine]
> 1		CCOC(=O)N1CCN(c2nc(-c3ccc(Cl)cc3)nc3ccc(Cl)cc23)CC1 [Example 210, Ethyl 4-(6-chloro-2-(4-chlorophenyl)quinazolin-4-yl)piperazine-1-carboxylate]
> 1		COC(CNc1nc(-c2ccccc2Cl)nc2ccccc12)OC [Example 230, 2-(2-Chlorophenyl)-N-(2,2-dimethoxyethyl)quinazolin-4-amine]
< 1		O=S(=O)(NCc1nc(N2CCOCC2)c2ccccc2n1)c1ccccc1Br [Example 292, 2-Bromo-N-((4-morpholinoquinazolin-2-yl)methyl)benzenesulfonamide]
> 1		COC(=O)c1ccc2nc(-c3ccccc3Cl)nc(Nc3ccccc3C)c2c1 [Example 329, Methyl 2-(2-chlorophenyl)-4-(o-tolylamino)quinazoline-6-carboxylate]
